Laboratory results published in patent publication US20240368120A1 (Terns Pharmaceuticals, Inc., priority 2023, published 2024).

Molecular target: T1, human GLP-1R receptor (Homo sapiens, UniProt P43220)
T1 construct: expressed in transfected cells
Assay: GLP-1R low expression cell assay (cAMP TR-FRET, CHO-K1_hGLP-1Rlow_clone10 cells)
Assay type: cell-based
Settings: for EC50: cAMP TR-FRET, 30 min at 25° C.; for Emax: maximum activation relative to control GLP-1 peptide agonist
In short: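 CHO-K1 cells stably expressing low surface human GLP-1R (clone10), 1,000 cells/well, exposed to 10-point 3-fold compound dilutions for 30 min at 25 °C. cAMP measured by TR-FRET (Eu-cAMP tracer/ULight-anti-cAMP, 15 min). EC50 from Hill fit of duplicate percent activation relative to a parallel GLP-1 control agonist.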

T1 sequence (P43220 24-463): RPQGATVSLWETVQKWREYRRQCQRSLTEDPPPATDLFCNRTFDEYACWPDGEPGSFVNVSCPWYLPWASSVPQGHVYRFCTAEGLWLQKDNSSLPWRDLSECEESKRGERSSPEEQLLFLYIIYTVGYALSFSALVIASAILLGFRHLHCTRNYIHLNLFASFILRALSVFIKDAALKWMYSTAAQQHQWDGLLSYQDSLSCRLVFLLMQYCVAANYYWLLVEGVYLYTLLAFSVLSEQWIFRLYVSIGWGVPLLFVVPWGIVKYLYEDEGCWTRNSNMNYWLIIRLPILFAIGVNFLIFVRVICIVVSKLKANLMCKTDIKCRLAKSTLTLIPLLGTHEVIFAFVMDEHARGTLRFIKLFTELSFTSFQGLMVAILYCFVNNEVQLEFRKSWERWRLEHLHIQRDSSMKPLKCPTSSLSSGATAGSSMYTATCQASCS

Row | SMILES | EC50 [nM] | Emax [%]
1 | COc1cc(C(=O)O)cc2c1nc(CN1CCC(c3cccc(OCc4cc(F)c(C#N)cc4F)n3)CC1)n2C [Compound 327, 2-((4-(6-((4-Cyano-2,5-difluorobenzyl)oxy)pyridin-2-yl)piperidin-1-yl)methyl)-4-methoxy-1-methyl-1H-benzo[d]imidazole-6-carboxylic acid] | < 10 | > 85
2 | Cn1c(CN2CCC(c3cccc(OCc4ccc(Cl)cc4F)n3)CC2)nc2c(OC3CC3)cc(C(=O)O)cc21 [Compound 215, 2-((4-(6-((4-Chloro-2-fluorobenzyl)oxy)pyridin-2-yl)piperidin-1-yl)methyl)-4-cyclopropoxy-1-methyl-1H-benzo[d]imidazole-6-carboxylic acid] | < 10 | > 85
3 | Cn1c(CN2CCC(c3cccc(OCc4ccc(C(F)(F)F)cn4)n3)CC2)nc2c(OC(F)F)cc(C(=O)O)cc21 [Compound 229, 4-(Difluoromethoxy)-1-methyl-2-((4-(6-((5-(trifluoromethyl)pyridin-2-yl)methoxy)pyridin-2-yl)piperidin-1-yl)methyl)-1H-benzo[d]imidazole-6-carboxylic acid] | 100 to 1000 | > 85
4 | COc1cc(C(=O)O)c(F)c2c1nc(CN1CCC(c3ccc(F)c(OCc4ccc(Cl)cc4F)c3)CC1)n2C [Compound 340, 2-((4-(3-((4-Chloro-2-fluorobenzyl)oxy)-4-fluorophenyl)piperidin-1-yl)methyl)-7-fluoro-4-methoxy-1-methyl-1H-benzo[d]imidazole-6-carboxylic acid] | 10 to 100 | > 85
5 | Cn1c(CN2CCC(c3cccc(Cl)c3OCc3ccc(C#N)cc3F)CC2)nc2c(OC(F)F)cc(C(=O)O)cc21 [Compound 138, 2-((4-(3-Chloro-2-((4-cyano-2-fluorobenzyl)oxy)phenyl)piperidin-1-yl)methyl)-4-(difluoromethoxy)-1-methyl-1H-benzo[d]imidazole-6-carboxylic acid] | > 1000 | 25 to 50
6 | Cn1c(Cc2ccc(-c3cccc(OCc4ccc(C#N)cc4F)n3)cc2F)nc2c(OC(F)F)cc(C(=O)O)cc21 [Compound 120, 2-(4-(6-((4-Cyano-2-fluorobenzyl)oxy)pyridin-2-yl)-2-fluorobenzyl)-4-(difluoromethoxy)-1-methyl-1H-benzo[d]imidazole-6-carboxylic acid] | < 10 | > 85
7 | CCCOc1cc(C(=O)O)cc2c1nc(CN1CCC(c3cccc(OCc4ccc(Cl)cc4F)n3)CC1)n2C [Compound 322, 2-((4-(6-((4-chloro-2-fluorobenzyl)oxy)pyridin-2-yl)piperidin-1-yl)methyl)-1-methyl-4-propoxy-1H-benzo[d]imidazole-6-carboxylic acid] | 10 to 100 | > 85
8 | N#Cc1ccc(COc2cccc(C3CCN(Cc4nc5c(OC(F)F)cc(C(=O)O)cc5n4CC4(C#N)CC4)CC3)n2)c(F)c1 [Compound 105, 2-((4-(6-((4-Cyano-2-fluorobenzyl)oxy)pyridin-2-yl)piperidin-1-yl)methyl)-1-((1-cyanocyclopropyl)methyl)-4-(difluoromethoxy)-1H-benzo[d]imidazole-6-carboxylic acid] | < 10 | > 85
9 | COc1cc(C(=O)O)nc2c1nc(CN1CCC(c3cccc(OCc4ccc(C#N)cc4F)n3)CC1)n2C [Compound 323, 2-((4-(6-((4-Cyano-2-fluorobenzyl)oxy)pyridin-2-yl)piperidin-1-yl)methyl)-7-methoxy-3-methyl-3H-imidazo[4,5-b] pyridine-5-carboxylic acid] | 10 to 100 | > 85
10 | Cn1c(CN2CCC(c3ccnnc3OCc3ccc(Cl)cc3F)CC2)nc2c(OC(F)F)cc(C(=O)O)cc21 [Compound 355, 2-((4-(3-((4-Chloro-2-fluorobenzyl)oxy)pyridazin-4-yl)piperidin-1-yl)methyl)-4-(difluoromethoxy)-1-methyl-1H-benzo[d]imidazole-6-carboxylic acid] | 100 to 1000 | > 85
11 | COCCc1nc(C(=O)O)cc2c1nc(CN1CCC(c3cccc(OCc4ccc(C#N)cc4F)n3)CC1)n2C [Compound 107, 2-((4-(6-((4-cyano-2-fluorobenzyl)oxy)pyridin-2-yl)piperidin-1-yl)methyl)-4-(2-methoxyethyl)-1-methyl-1H-imidazo[4,5-c]pyridine-6-carboxylic acid] | > 1000 | 50 to 85
12 | COCCOc1cc(C(=O)O)cc2nc(CN3CCC(c4cccc5c4O[C@@](C)(c4ccc(Cl)cn4)O5)CC3)n(C)c12 [Compound 76, (S)-2-((4-(2-(5-Chloropyridin-2-yl)-2-methylbenzo[d][1,3]dioxol-4-yl)piperidin-1-yl)methyl)-7-(2-methoxyethoxy)-1-methyl-1H-benzo[d]imidazole-5-carboxylic acid] | > 1000 | 50 to 85
13 | [2H]C([2H])([2H])Oc1cc(C(=O)O)cc2c1nc(CN1CCC(c3cccc4c3O[C@@](C)(c3ccc(Cl)cn3)O4)CC1)n2C[C@@H]1CCO1 [Compound 98, 2-((4-((S)-2-(5-chloropyridin-2-yl)-2-methylbenzo[d][1,3]dioxol-4-yl)piperidin-1-yl)methyl)-4-(methoxy-d3)-1-(((S)-oxetan-2-yl)methyl)-1H-benzo[d]imidazole-6-carboxylic acid] | < 10 | > 85
14 | Cn1c(CN2CCC(c3cccc(OCc4ccc(C#N)cc4F)n3)CC2)nc2c(O)cc(C(=O)O)cc21 [Compound 114, 2-((4-(6-((4-Cyano-2-fluorobenzyl)oxy)pyridin-2-yl)piperidin-1-yl)methyl)-4-hydroxy-1-methyl-1H-benzo[d]imidazole-6-carboxylic acid] | < 10 | > 85
15 | [2H]C([2H])(C)Oc1cc(C(=O)O)cc2c1nc(C([2H])([2H])N1CCC(c3cccc(OC([2H])([2H])c4ccc(Cl)cc4F)n3)CC1)n2C [Compound 381, 2-((4-(6-((4-Chloro-2-fluorophenyl)methoxy-d2)pyridin-2-yl)piperidin-1-yl)methyl-d2)-4-(ethoxy-1,1-d2)-1-methyl-1H-benzo[d]imidazole-6-carboxylic acid] | < 10 | > 85
16 | Cn1c(CN2CCC(n3ccc(OCc4ccc(Cl)cc4F)n3)CC2)nc2c(OC(F)F)cc(C(=O)O)cc21 [Compound 217, 2-((4-(3-((4-Chloro-2-fluorobenzyl)oxy)-1H-pyrazol-1-yl)piperidin-1-yl)methyl)-4-(difluoromethoxy)-1-methyl-1H-benzo[d]imidazole-6-carboxylic acid] | > 1000 | > 85
17 | Cn1c(CN2CCC(c3cccc(OCc4ccc(Cl)cc4F)n3)CC2)nc2c(OC(F)(F)CF)cc(C(=O)O)cc21 [Compound 235, 2-((4-(6-((4-Chloro-2-fluorobenzyl)oxy)pyridin-2-yl)piperidin-1-yl)methyl)-1-methyl-4-(1,1,2-trifluoroethoxy)-1H-benzo[d]imidazole-6-carboxylic acid] | 10 to 100 | > 85
18 | Cn1c(CN2CCC(c3cccc(OCc4ccc(Cl)cc4F)n3)CC2)nc2c(OC(F)F)nc(C(=O)O)cc21 [Compound 253, 2-((4-(6-((4-Chloro-2-fluorobenzyl)oxy)pyridin-2-yl)piperidin-1-yl)methyl)-4-(difluoromethoxy)-1-methyl-1H-imidazo[4,5-c]pyridine-6-carboxylic acid] | 10 to 100 | –
19 | CCC(F)Oc1cc(C(=O)O)cc2c1nc(CN1CCC(c3cccc(OCc4ccc(Cl)cc4F)n3)CC1)n2C (centres unmarked) [Compound 351, 2-((4-(6-((4-Chloro-2-fluorobenzyl)oxy)pyridin-2-yl)piperidin-1-yl)methyl)-4-(1-fluoropropoxy)-1-methyl-1H-benzo[d]imidazole-6-carboxylic acid] | 10 to 100 | > 85
20 | Cn1c(CN2CCC(c3c(F)cccc3OCc3ccc(C#N)cc3F)CC2)nc2c(OC(F)F)cc(C(=O)O)cc21 [Compound 146, 2-((4-(2-((4-Cyano-2-fluorobenzyl)oxy)-6-fluorophenyl)piperidin-1-yl)methyl)-4-(difluoromethoxy)-1-methyl-1H-benzo[d]imidazole-6-carboxylic acid] | > 1000 | 50 to 85
21 | Cn1c(CN2CCC(c3ccnc(OCc4ccc(C#N)cc4F)n3)CC2)nc2c(OC(F)F)cc(C(=O)O)cc21 [Compound 145, 2-((4-(2-((4-Cyano-2-fluorobenzyl)oxy)pyrimidin-4-yl)piperidin-1-yl)methyl)-4-(difluoromethoxy)-1-methyl-1H-benzo[d]imidazole-6-carboxylic acid] | 100 to 1000 | > 85
22 | Cn1c(CN2CCC(c3cccc4c3O[C@@H](c3ccc(C#N)cc3F)CO4)CC2)nc2c(OC(F)F)cc(C(=O)O)cc21 [Compound 123, (S)-2-((4-(3-(4-Cyano-2-fluorophenyl)-2,3-dihydrobenzo[b][1,4]dioxin-5-yl)piperidin-1-yl)methyl)-4-(difluoromethoxy)-1-methyl-1H-benzo[d]imidazole-6-carboxylic acid] | 10 to 100 | > 85
23 | COc1cc(C(=O)O)cc2c1nc([C@H](C)N1CCC(c3cccc(OCc4ccc(C#N)cc4F)n3)CC1)n2C[C@@H]1CCO1 [Compound 95, 2-((S)-1-(4-(6-((4-Cyano-2-fluorobenzyl)oxy)pyridin-2-yl)piperidin-1-yl)ethyl)-4-methoxy-1-(((S)-oxetan-2-yl)methyl)-1H-benzo[d]imidazole-6-carboxylic acid] | < 10 | > 85
24 | Cn1c(CN2CCC(c3cccc(OCc4ccc(Cl)cc4F)n3)CC2)nc2c(OC(F)F)cc(-c3n[nH]c(=O)o3)cc21 [Compound 234, 5-(2-((4-(6-((4-Chloro-2-fluorobenzyl)oxy)pyridin-2-yl)piperidin-1-yl)methyl)-4-(difluoromethoxy)-1-methyl-1H-benzo[d]imidazol-6-yl)-1,3,4-oxadiazol-2 (3H)-one] | > 1000 | < 25
